From ChEMBL document CHEMBL1137051, “More potent linear peptide inhibitors of mammalian ribonucleotide reductase” (Bioorg Med Chem Lett, 2004)
Where a SMILES comes first, the peptide text is derived from it. [ ]: non-standard residue; d: D form. The star is where a group is joined. Fmoc = O=C(OCC1c2ccccc2-c2ccccc21)*; NMeF = CN[C@@H](Cc1ccccc1)C(=O)O; NMePhg = CN[C@H](C(=O)O)c1ccccc1; Cha = N[C@@H](CC1CCCCC1)C(=O)O

Target: T1, Ribonucleoside-diphosphate reductase RR1 (Homo sapiens, UniProt P23921+Q7LG56+P31350)
T1 sequence (P23921 whole entry): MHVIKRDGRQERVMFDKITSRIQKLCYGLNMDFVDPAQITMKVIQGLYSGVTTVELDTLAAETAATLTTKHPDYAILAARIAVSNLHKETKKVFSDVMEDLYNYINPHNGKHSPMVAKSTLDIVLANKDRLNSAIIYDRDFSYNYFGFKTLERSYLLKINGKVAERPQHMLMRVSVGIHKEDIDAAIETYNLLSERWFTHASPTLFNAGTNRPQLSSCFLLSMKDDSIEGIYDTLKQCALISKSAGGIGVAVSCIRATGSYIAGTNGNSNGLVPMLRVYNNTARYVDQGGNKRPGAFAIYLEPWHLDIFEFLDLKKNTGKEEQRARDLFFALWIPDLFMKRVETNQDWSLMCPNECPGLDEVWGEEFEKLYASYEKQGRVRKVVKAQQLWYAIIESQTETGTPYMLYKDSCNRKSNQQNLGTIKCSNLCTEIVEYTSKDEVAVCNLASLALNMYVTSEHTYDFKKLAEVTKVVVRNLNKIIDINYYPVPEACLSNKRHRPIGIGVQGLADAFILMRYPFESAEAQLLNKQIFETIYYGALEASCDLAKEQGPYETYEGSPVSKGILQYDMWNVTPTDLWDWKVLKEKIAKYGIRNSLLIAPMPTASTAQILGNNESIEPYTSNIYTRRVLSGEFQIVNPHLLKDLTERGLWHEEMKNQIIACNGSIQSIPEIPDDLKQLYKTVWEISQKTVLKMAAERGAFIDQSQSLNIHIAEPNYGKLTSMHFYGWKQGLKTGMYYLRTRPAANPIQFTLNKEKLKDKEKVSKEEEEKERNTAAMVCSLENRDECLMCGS
T1 sequence (Q7LG56 whole entry): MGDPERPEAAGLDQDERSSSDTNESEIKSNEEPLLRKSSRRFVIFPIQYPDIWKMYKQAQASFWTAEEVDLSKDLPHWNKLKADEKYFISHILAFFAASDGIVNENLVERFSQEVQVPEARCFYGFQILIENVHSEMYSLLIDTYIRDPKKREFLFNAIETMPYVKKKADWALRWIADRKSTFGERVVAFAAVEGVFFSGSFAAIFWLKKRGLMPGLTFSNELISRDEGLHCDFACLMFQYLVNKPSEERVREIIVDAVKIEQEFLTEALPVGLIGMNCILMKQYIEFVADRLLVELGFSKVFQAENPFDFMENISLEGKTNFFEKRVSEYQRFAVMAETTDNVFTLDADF
T1 sequence (P31350 whole entry): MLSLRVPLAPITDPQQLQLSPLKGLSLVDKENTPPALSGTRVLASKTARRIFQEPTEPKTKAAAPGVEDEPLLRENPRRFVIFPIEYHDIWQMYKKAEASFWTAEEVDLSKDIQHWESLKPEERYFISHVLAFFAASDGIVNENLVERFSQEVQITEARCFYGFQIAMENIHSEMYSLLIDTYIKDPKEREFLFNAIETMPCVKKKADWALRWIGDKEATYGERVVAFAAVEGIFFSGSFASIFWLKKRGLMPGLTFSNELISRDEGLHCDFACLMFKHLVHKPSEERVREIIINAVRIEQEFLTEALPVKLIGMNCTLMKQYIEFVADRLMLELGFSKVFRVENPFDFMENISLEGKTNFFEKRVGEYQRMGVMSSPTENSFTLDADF
Assay: (§1) Inhibition of mammalian ribonucleotide reductase in a standard dTTP-dependent GDP reductase assay
Assay type: protein-complex assay

Compound	IC50 [µM]
CC(C)C[C@H](NC(=O)[C@H](Cc1ccccc1)N(C)C(=O)OCC1c2ccccc2-c2ccccc21)C(=O)N[C@@H](CCC(=O)O)C(=O)N[C@@H](CC1CCCCC1)C(=O)N[C@@H](CC(=O)O)C(=O)N[C@@H](Cc1ccccc1)C(=O)O (Fmoc-[NMeF]LE[Cha]DF-OH)	2.4
CC(C)C[C@H](NC(=O)[C@H](Cc1ccccc1)N(C)C(=O)OCC1c2ccccc2-c2ccccc21)C(=O)N[C@@H](CC(=O)O)C(=O)N[C@@H](CC1CCCCC1)C(=O)N[C@@H](CC(=O)O)C(=O)N[C@@H](Cc1ccccc1)C(=O)O (Fmoc-[NMeF]LD[Cha]DF-OH)	2.4

Target: T2, Ribonucleoside-diphosphate reductase RR1 (Homo sapiens, UniProt P23921+P31350+Q7LG56)
T2 sequence (P23921 whole entry): T1 sequence (P23921 whole entry)
T2 sequence (Q7LG56 whole entry): T1 sequence (Q7LG56 whole entry)
T2 sequence (P31350 whole entry): T1 sequence (P31350 whole entry)
Assay: as §1
Assay type: protein-complex assay

Compound	IC50 [µM]
Ac-FTLDADF-OH	13.3
CC(C)C[C@H](NC(=O)[C@H](c1ccccc1)N(C)C(=O)OCC1c2ccccc2-c2ccccc21)C(=O)N[C@@H](CC(=O)O)C(=O)N[C@@H](CC1CCCCC1)C(=O)N[C@@H](CC(=O)O)C(=O)N[C@@H](Cc1ccccc1)C(=O)O (Fmoc-[NMePhg]LD[Cha]DF-OH)	1.9
O=C(O)C[C@H](NC(=O)[C@H](Cc1ccccc1)NC(=O)[C@H](Cc1c[nH]c2ccccc12)NC(=O)OCC1c2ccccc2-c2ccccc21)C(=O)N[C@@H](Cc1ccccc1)C(=O)O (Fmoc-WFDF-OH)	22
CC(C)[C@H](NC(=O)[C@H](Cc1c[nH]c2ccccc12)NC(=O)OCC1c2ccccc2-c2ccccc21)C(=O)N[C@@H](Cc1ccccc1)C(=O)N[C@@H](Cc1ccccc1)C(=O)O (Fmoc-WVFF-OH)	20
